Test results from US20240245653A1, “PHARMACEUTICAL FORMULATIONS” (SPEPHARM AG, priority 2021, published 2024).
Like-named read-outs stand apart in the source and are kept apart here.

Tests used:
[1] = Dantrolene sodium solubility in water only solutions of HPBCD (visual inspection); type: physicochemical; conditions: for solubility: aqueous with cosolvent or surfactant or cyclodextrin; for Maximum concentration of dantrolene sodium that could be dissolved: <2 μm particle size
Procedure: This study was performed to determine the impact of HPBCD on the solubility of dantrolene Sodium. An initial comparison of different HPBCDs was carried out using HP5 and HP7 substituted variants (Cavitron™ W7, Ashland, Inc.), which have a typical degree of substitution (average number of hydroxypropyl groups per cyclodextrin molecule) of 4.1-5.1 and 6.0-8.0 respectively. (Equivalent products, such as Kleptose® HPB (Roquette), which is a low endotoxin burden (<10 IU/g) HP5 substituted β-cyclodextrin with typical molar substitution (i.e. per anhydro glucose subunit) of 0.65 (range 0.58 to 0.68), are also available for commercial scale manufacturing.)
Due to the larger molecular weight of the HP7 variant, more weight of excipient was required to achieve the same molar equivalent concentration compared with the HP5 variant. Overall, HP5 substituted β-cyclodextrin was preferred and it was therefore used for subsequent test formulations.
Further analysis was performed to determine the maximum possible concentration of dantrolene sodium, at different particle sizes, in water only solutions of HP5 substituted β-cyclodextrin. Commercially available samples of dantrolene sodium having particle sizes of <2 μm and <63 μm were tested. […] Results are shown in Table 1 below; DNa denotes dantrolene sodium.

[2] = Dantrolene sodium solubility with HPBCD and parenteral-compatible co-solvent addition (visual inspection); type: physicochemical; conditions: for Result (assessed by visual inspection): 7 Mol equivalent HP5 HPBCD solution
Procedure: This experiment was performed to determine the effects of different parenteral-compatible alcohol- and ketone-based co-solvents on dantrolene sodium solubility, in a 7 Mol equivalent HP5 substituted HPBCD solution. The results are shown in Table 2 below; DNa denotes dantrolene sodium.

SMILES: O=C1CN(/N=C/c2ccc(-c3ccc([N+](=O)[O-])cc3)o2)C([O-])=N1.[Na+] [DNa, dantrolene sodium]
- Result (assessed by visual inspection) ([1]; DNa 4.46 mg/mL anhydrous salt equivalent (5.16 mg/mL hemiheptahydrate equivalent), particle size <2 μm, 7 molar equivalent HP5 HPBCD, water only): Complete solution
- Result (assessed by visual inspection) ([1]; DNa 4.5 mg/mL anhydrous salt equivalent (5.33 mg/mL hemiheptahydrate equivalent), particle size <2 μm, 7 molar equivalent HP5 HPBCD, water only): Complete solution
- Result (assessed by visual inspection) ([1]; DNa 4.5 mg/mL anhydrous salt equivalent (5.35 mg/mL hemiheptahydrate equivalent), particle size <63 μm, 7 molar equivalent HP5 HPBCD, water only): Complete solution
- Result (assessed by visual inspection) ([1]; DNa 4.55 mg/mL anhydrous salt equivalent (5.36 mg/mL hemiheptahydrate equivalent), particle size <2 μm, 7 molar equivalent HP5 HPBCD, water only): Complete solution
- Result (assessed by visual inspection) ([1]; DNa 4.6 mg/mL anhydrous salt equivalent (5.40 mg/mL hemiheptahydrate equivalent), particle size <2 μm, 7 molar equivalent HP5 HPBCD, water only): Slightly Hazy Solution (Incomplete)
- Result (assessed by visual inspection) ([1]; DNa 4.65 mg/mL anhydrous salt equivalent (5.47 mg/mL hemiheptahydrate equivalent), particle size <2 μm, 7 molar equivalent HP5 HPBCD, water only): Hazy Solution (Incomplete)
- Result (assessed by visual inspection) ([1]; DNa 4.75 mg/mL anhydrous salt equivalent (5.58 mg/mL hemiheptahydrate equivalent), particle size <2 μm, 7 molar equivalent HP5 HPBCD, water only): Hazy Solution (Incomplete)
- Result (assessed by visual inspection) ([1]; DNa 4.75 mg/mL anhydrous salt equivalent (5.66 mg/mL hemiheptahydrate equivalent), particle size <63 μm, 7 molar equivalent HP5 HPBCD, water only): Hazy Solution (Incomplete)
- Result (assessed by visual inspection) ([1]; DNa 5.0 mg/mL anhydrous salt equivalent (5.95 mg/mL hemiheptahydrate equivalent), particle size <2 μm, 7 molar equivalent HP5 HPBCD, water only): Hazy Solution (Incomplete)
- solubility ([1]; hemiheptahydrate equivalent, 9 Mol equivalents of HPBCD, HP5 variant, purified water, read-out: Solubility of dantrolene sodium): 8500 µg/mL
- solubility ([1]; hemiheptahydrate equivalent, 9 Mol equivalents of HPBCD, HP7 variant, purified water, read-out: Solubility of dantrolene sodium): 8500 µg/mL
- solubility ([1]; thermodynamic from solid, as anhydrous salt equivalent, <63 μm particle size, 7 molar equivalent HP5 HPBCD, water only, read-out: Solubility (maximum concentration of dantrolene sodium that could be dissolved)): 4500 µg/mL
- Maximum concentration of dantrolene sodium that could be dissolved ([1]; as anhydrous salt equivalent, 7 molar equivalent HP5 HPBCD, water only): 4.55 mg/mL
- Maximum concentration of dantrolene sodium that could be dissolved ([1]; as hemiheptahydrate equivalent, 7 molar equivalent HP5 HPBCD, water only): 5.36 mg/mL
- Solubility (maximum concentration of dantrolene sodium that could be dissolved) ([1]; as hemiheptahydrate equivalent, <63 μm particle size, 7 molar equivalent HP5 HPBCD, water only): 5350 µg/mL
- Result (assessed by visual inspection) ([2]; DNa 4.5 mg/mL anhydrous salt equivalent, Benzyl Alcohol 1%): Moderate Excess
- Result (assessed by visual inspection) ([2]; DNa 4.5 mg/mL anhydrous salt equivalent, Ethanol Abs. 1%): Hazy - Small Excess
- Result (assessed by visual inspection) ([2]; DNa 4.5 mg/mL anhydrous salt equivalent, Glycerol 5.18%): Hazy - Small Excess
- Result (assessed by visual inspection) ([2]; DNa 4.5 mg/mL anhydrous salt equivalent, N,N-Dimethyl-formamide 2%): Hazy - Small Excess
- Result (assessed by visual inspection) ([2]; DNa 4.5 mg/mL anhydrous salt equivalent, Polyethylene Glycol 300 (PEG-300) 5%): Hazy - Small Excess
- Result (assessed by visual inspection) ([2]; DNa 4.5 mg/mL anhydrous salt equivalent, Polyethylene Glycol 400 (PEG-400) 5%): Hazy - Small Excess
- Result (assessed by visual inspection) ([2]; DNa 4.5 mg/mL anhydrous salt equivalent, Propylene Glycol 5%): Moderate Excess
- Result (assessed by visual inspection) ([2]; DNa 4.5 mg/mL anhydrous salt equivalent, Tert-Butanol 5%): Large Excess
- Result (assessed by visual inspection) ([2]; DNa 4.5 mg/mL anhydrous salt equivalent, Tetrahydrofuran 2%): Large Excess
- Result (assessed by visual inspection) ([2]; DNa 4.55 mg/mL anhydrous salt equivalent, N-Methyl-pyrrolidone 2, 4, 6%): Hazy - Small Excess
- Result (assessed by visual inspection) ([2]; DNa 4.75 mg/mL anhydrous salt equivalent, Tert-Butanol 5%): Large Excess
- Result (assessed by visual inspection) ([2]; DNa 5.0 mg/mL anhydrous salt equivalent, Benzyl Alcohol 2%): Large Excess
- Result (assessed by visual inspection) ([2]; DNa 5.0 mg/mL anhydrous salt equivalent, Ethanol Abs. 20%): Large Excess
- Result (assessed by visual inspection) ([2]; DNa 5.0 mg/mL anhydrous salt equivalent, Tert-Butanol 10%): Large Excess
- Result (assessed by visual inspection) ([2]; DNa 5.0 mg/mL anhydrous salt equivalent, Tert-Butanol 20%): Large Excess
- Effect of parenteral-compatible alcohol- or ketone-based solvents on dantrolene solubility in the presence of HPBCD ([2]; all 15 of the solvents tested, including PEG 300 and PEG 400): reduced dantrolene solubility
